Measured values as given in publication PMC10096376, “Insecticidal and Synergistic Potential of Three Monoterpenoids against the Yellow Fever Mosquito, Aedes aegypti (Diptera: Culicidae), and the House Fly, Musca domestica (Diptera: Muscidae)” (Molecules, 2023).
Like-named read-outs stand apart in the source and are kept apart here.

Legend:
rat = details: in vivo; cited from earlier work
rabbit = details: in vivo; cited from earlier work
Aedes aegypti [1] = experiment: Co-toxicity assay with permethrin (topical); details: for 1-h knockdown Co-Toxicity Factor / 24-h mortality Co-Toxicity Factor: >+20 potentiation, <−20 antagonism, −20 to +20 additive
Experimental: (§1) For Ae. aegypti, synergism assays were performed similar to the topical applications described previously, with the following modifications: 2 doses (2 µg/mosquito and 10 µg/mosquito) of each monoterpenoid were applied as synergists, similar to previous studies exploring the synergistic potential of natural products in combination with an intermediate dose-level of insecticide alone.
(§2) Mosquitoes were transferred to deli cups and kept at a controlled temperature and humidity (the same conditions as described for the topical application of insecticides and monoterpenoids alone). Again, a minimum of 3 separate rearing cohorts were used among replicates of each dose combination.
(§3) Dose responses were modeled via probit analysis, and their resulting estimates were obtained. […] A control correction option (OPTC command) was used to account for responses to the vehicle control treatments. Co-toxicity values were calculated by the method of [29]. A co-toxicity factor of >+20 signifies potentiation, <−20 antagonism, and −20 to +20 additive.

Aedes aegypti [2] = tested on: Aedes aegypti
Experimental: as §1, §2, §3

Aedes aegypti [3] = details: 24 h, topical, adult females, susceptible strain
Musca domestica [4] = experiment: Co-toxicity assay with permethrin (topical); format: in vivo; details: for 1-h% Mean Knockdown ± SEM, Synergist Alone / 24-h% Mean Mortality ± SEM, Synergist Alone: 10.2 μg PBO, 70 μg carvone, 190 μg menthone, 80 μg fenchone per fly; for 1-h% Mean Knockdown ± SEM, Mixture: near-sublethal synergist dose (10.2 μg PBO, 70 μg carvone, 190 μg menthone, 80 μg fenchone) + permethrin 18 ng; for 1-h knockdown Co-Toxicity Factor / 24-h mortality Co-Toxicity Factor: near-sublethal synergist dose + permethrin, >+20 potentiation, <−20 antagonism, −20 to +20 additive
Experimental: […]. Each dose was formulated in a total volume of 1.5 mL of acetone. A dose of permethrin that produced approximately 50% mortality (18 ng) was used as the treatment. Female flies were sorted into groups of 20 per synergism assay and dosed as previously mentioned (i.e., the same way as in the topical toxicity assays). Flies were assessed for mortality at 24 h.

Musca domestica [5] = details: 24 h, topical, adult females, susceptible strain
acetylcholinesterase = acetylcholinesterase (Musca domestica, UniProt Q7YWJ9); experiment: In vitro inhibition of acetylcholinesterase (Ellman), head homogenate; format: biochemical; details: at 1 mM, M. domestica preparation; read-out: inhibition of AChE
Experimental: Acetylcholinesterase inhibition was conducted on homogenates of whole-body Ae. aegypti and M. domestica heads using Ellman’s method. For Ae. aegypti, 10 whole female adults were placed in 2 mL microcentrifuge screw cap tubes with 3–5.2 mm zircon/silica beads and homogenized in 500 μL of sodium phosphate buffer (100 mM, pH 7.8) using a Precellys Evolution bead beater (Bertin Corp., Rockville, MD, USA) set to two 15-s pulses of 5600 rpm. Afterward, 500 μL of Triton X-100 buffer (100 mM sodium phosphate, pH 7.8, 0.6% Triton X-100) was added to each tube (final Triton X-100 concentration: 0.3%), inverted several times to mix up the sample, and then centrifuged at 10,000× g for 4 min at 4 °C. The supernatant was used as the enzyme source. The same process was carried out with M. domestica, except three heads were processed in a 1000:1000 μL sodium phosphate buffer and Triton X-100 buffer in the same manner as just described.
Concentration responses were conducted in the wells of a 96-well, clear, flat-bottomed plate. Inhibitor solutions of methomyl or monoterpenoids were first dissolved in DMSO (dimethyl sulfoxide) and then diluted in sodium phosphate buffer (100 mM, pH 7.8, DMSO concentration of 1%). A volume of 10 μL of the inhibitor solution was added to each well, along with 90 μL of sodium phosphate buffer, and finally 10 μL of homogenate. This was incubated on a plate shaker at 400 rpm for 10 min at room temperature. The final concentrations for methomyl were 100 μM, 10 μM, 1 μM, 100 nM, 10 nM, 1 nM, and 0 nM. For the monoterpenoids, the same range was used except the top concentration was 1 mM and the bottom non-zero concentration was 10 nM. The final concentration of DMSO in all wells was 0.09%.
After the 10-min incubation, 100 μL of Ellman’s reagent prepared in sodium phosphate buffer and each corresponding inhibitor concentration were added to the wells using a multichannel pipette.
as §3

[6] = animal and route not given; cited from earlier work
[7] = 2 μg synergist + permethrin 0.6 ng/mosquito
[8] = 10 μg synergist + permethrin 0.6 ng/mosquito
[9] = 10 μg synergist per Ae. aegypti
[10] = 2 μg synergist + methomyl, >+20 potentiation, <−20 antagonism, −20 to +20 additive
[11] = 10 μg synergist + methomyl, >+20 potentiation, <−20 antagonism, −20 to +20 additive

Chain of acetylcholinesterase (Q7YWJ9 81-660): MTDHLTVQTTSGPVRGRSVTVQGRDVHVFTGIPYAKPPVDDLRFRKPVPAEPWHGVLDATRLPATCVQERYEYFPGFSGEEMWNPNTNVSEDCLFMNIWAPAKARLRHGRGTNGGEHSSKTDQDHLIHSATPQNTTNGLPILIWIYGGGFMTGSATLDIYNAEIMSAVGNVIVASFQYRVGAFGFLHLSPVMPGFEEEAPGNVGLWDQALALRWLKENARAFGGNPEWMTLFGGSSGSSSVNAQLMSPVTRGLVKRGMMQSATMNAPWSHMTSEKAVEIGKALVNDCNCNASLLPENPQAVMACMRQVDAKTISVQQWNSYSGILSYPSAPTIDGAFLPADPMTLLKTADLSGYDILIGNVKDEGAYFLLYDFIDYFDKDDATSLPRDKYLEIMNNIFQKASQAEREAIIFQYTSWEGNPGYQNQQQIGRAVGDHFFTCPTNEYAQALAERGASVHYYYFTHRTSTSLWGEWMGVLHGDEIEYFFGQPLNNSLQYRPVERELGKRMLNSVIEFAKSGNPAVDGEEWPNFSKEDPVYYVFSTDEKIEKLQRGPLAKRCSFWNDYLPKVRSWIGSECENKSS

SMILES: CC12CCC(C1)C(C)(C)C2=O [Fenchone, L-fenchone]
- Oral LD50 (rat): 6160 (rt) mg compound per kg body weight
- Dermal LD50 (rabbit): 5000 (rb) mg compound per kg body weight
- 1-h% Mean Knockdown ± SEM, Mixture (Aedes aegypti [1]; [7]): 100 ± 0%
- 1-h knockdown Co-Toxicity Factor (Aedes aegypti [1]; 2 μg synergist + permethrin): 32.0
- 24-h mortality Co-Toxicity Factor (Aedes aegypti [1]; 2 μg synergist + permethrin): 160
- 1-h% Mean Knockdown ± SEM, Synergist Alone (Aedes aegypti [1]; 2 μg synergist per Ae. aegypti): 0 ± 0%
- 24-h% Mean Mortality ± SEM, Synergist Alone (Aedes aegypti [1]; 2 μg synergist per Ae. aegypti): 2.5 ± 2.5%
- 1-h% Mean Knockdown ± SEM, Mixture (Aedes aegypti [1]; [8]): 100 ± 0%
- 1-h knockdown Co-Toxicity Factor (Aedes aegypti [1]; 10 μg synergist + permethrin): 16
- 24-h mortality Co-Toxicity Factor (Aedes aegypti [1]; 10 μg synergist + permethrin): 121
- 1-h% Mean Knockdown ± SEM, Synergist Alone (Aedes aegypti [1]; [9]): 10 ± 4.1%
- 24-h% Mean Mortality ± SEM, Synergist Alone (Aedes aegypti [1]; [9]): 2.5 ± 2.5%
- 1-h% Mean Knockdown ± SEM, Synergist Alone (Aedes aegypti [2]; 2 μg applied): 0 ± 0%
- 24-h% Mean Mortality ± SEM, Synergist Alone (Aedes aegypti [2]; 2 μg applied): 2.5 ± 2.5%
- 48-h% Mean Mortality ± SEM, Synergist Alone (Aedes aegypti [2]; 2 μg applied): 7.5 ± 4.8%
- 1-h% Mean Knockdown ± SEM, Mixture (Aedes aegypti [2]; 2 μg synergist + methomyl 6 ng/mosquito): 83.3 ± 3.3%
- 1-h knockdown Co-Toxicity Factor (Aedes aegypti [2]; [10]): −5
- 24-h mortality Co-Toxicity Factor (Aedes aegypti [2]; [10]): −11
- 48-h mortality Co-Toxicity Factor (Aedes aegypti [2]; [10]): −17
- 24-h mortality Co-Toxicity Factor (Aedes aegypti [2]; 2 μg synergist + methomyl, >+20 potentiation, <−20 antagonism, −20 to +20 additive, listed as fenchone): negative
- 1-h% Mean Knockdown ± SEM, Synergist Alone (Aedes aegypti [2]; 10 μg applied): 10 ± 4.1%
- 24-h% Mean Mortality ± SEM, Synergist Alone (Aedes aegypti [2]; 10 μg applied): 2.5 ± 2.5%
- 48-h% Mean Mortality ± SEM, Synergist Alone (Aedes aegypti [2]; 10 μg applied): 10 ± 4.1%
- 1-h% Mean Knockdown ± SEM, Mixture (Aedes aegypti [2]; 10 μg synergist + methomyl 6 ng/mosquito): 93.3 ± 6.7%
- 1-h knockdown Co-Toxicity Factor (Aedes aegypti [2]; [11]): −4
- 24-h mortality Co-Toxicity Factor (Aedes aegypti [2]; [11]): 22
- 48-h mortality Co-Toxicity Factor (Aedes aegypti [2]; [11]): 7
- LD10 (95% CI) (Aedes aegypti [3]): 7600 (5000–9500) b ng/mg body weight
- LD50 (95% CI) (Aedes aegypti [3]): 11,300 (10,200–53,400) d ng/mg body weight
- LD90 (95% CI) (Aedes aegypti [3]): 42,000 (28,800–94,900) d ng/mg body weight
- 1-h% Mean Knockdown ± SEM, Synergist Alone (Musca domestica [4]): 0 ± 0%
- 24-h% Mean Mortality ± SEM, Synergist Alone (Musca domestica [4]): 0 ± 0%
- times as potent a synergist of permethrin as PBO (Musca domestica [4]; 24-h mortality): 1.1
- 1-h% Mean Knockdown ± SEM, Mixture (Musca domestica [4]): 100 ± 0%
- 1-h knockdown Co-Toxicity Factor (Musca domestica [4]): 24.0
- 24-h mortality Co-Toxicity Factor (Musca domestica [4]): 63.4
- LD10 (95% CI) (Musca domestica [5]): 8800 (8100–9400) d ng/mg body weight
- LD50 (95% CI) (Musca domestica [5]): 13,200 (12,600–13,800) d ng/mg body weight
- LD90 (95% CI) (Musca domestica [5]): 19,900 (18,600–21,600) d ng/mg body weight
- inhibition at 1000 µM (acetylcholinesterase): 1.9 ± 0.3%

SMILES: CCCCOCCOCCOCc1cc2c(cc1CCC)OCO2 [PBO, piperonyl butoxide, reference compound]
- 1-h% Mean Knockdown ± SEM, Mixture (Aedes aegypti [1]; [7]): 52.5 ± 7.5%
- 1-h knockdown Co-Toxicity Factor (Aedes aegypti [1]; 2 μg synergist + permethrin): −44.7
- 24-h mortality Co-Toxicity Factor (Aedes aegypti [1]; 2 μg synergist + permethrin): 25
- 1-h% Mean Knockdown ± SEM, Synergist Alone (Aedes aegypti [1]; 2 μg synergist per Ae. aegypti): 7.5 ± 2.5%
- 24-h% Mean Mortality ± SEM, Synergist Alone (Aedes aegypti [1]; 2 μg synergist per Ae. aegypti): 12.5 ± 6.3%
- 1-h% Mean Knockdown ± SEM, Mixture (Aedes aegypti [1]; [8]): 60 ± 14.7%
- 1-h knockdown Co-Toxicity Factor (Aedes aegypti [1]; 10 μg synergist + permethrin): −39
- 1-h% Mean Knockdown ± SEM, Synergist Alone (Aedes aegypti [1]; [9]): 22.5 ± 4.8%
- 24-h% Mean Mortality ± SEM, Synergist Alone (Aedes aegypti [1]; [9]): 72.5 ± 8.5%
- 1-h% Mean Knockdown ± SEM, Synergist Alone (Aedes aegypti [2]; 2 μg applied): 7.5 ± 2.5%
- 24-h% Mean Mortality ± SEM, Synergist Alone (Aedes aegypti [2]; 2 μg applied): 12.5 ± 6.3%
- 48-h% Mean Mortality ± SEM, Synergist Alone (Aedes aegypti [2]; 2 μg applied): 15 ± 3.4%
- 1-h knockdown Co-Toxicity Factor (Aedes aegypti [2]; in vivo): −5.3
- 1-h% Mean Knockdown ± SEM, Mixture (Aedes aegypti [2]; in vivo): 90 ± 10%
- 24-h mortality Co-Toxicity Factor (Aedes aegypti [2]; in vivo): 14.3
- 48-h mortality Co-Toxicity Factor (Aedes aegypti [2]; in vivo): 20.9
- 1-h% Mean Knockdown ± SEM, Synergist Alone (Musca domestica [4]): 2 ± 2%
- 24-h% Mean Mortality ± SEM, Synergist Alone (Musca domestica [4]): 6 ± 2.9%
- 1-h% Mean Knockdown ± SEM, Mixture (Musca domestica [4]): 96 ± 4%
- 1-h knockdown Co-Toxicity Factor (Musca domestica [4]): 16.2
- 24-h mortality Co-Toxicity Factor (Musca domestica [4]): 55.9

SMILES: Cc1ccc(C(C)C)cc1O [carvacrol]
- LD50 [6]: 2000 to 3000 mg/kg
